Assay results from publication PMC2849849 (Neuropharmacology, 2010).
Where “and” joins values, the source holds several entries; their conditions need not be identical. Equal values may be shown once. Entries after “also recorded” stand apart in the source; their conditions may differ. Where a name gives a salt, the structure may show the parent alone. Read-outs that look alike come from different tables or passages of the source.

Assays:
[1] = target: T1, α4β2*-nAChR (Mus musculus, UniProt O70174+Q9ERK7); assay: α-CtxMII-resistant [3H]-dopamine release from striatal synaptosomes; type: biochemical
[2] = target: T2, α6β2*-nAChR (Mus musculus, UniProt Q9ERK7+Q9R0W9); assay: α-CtxMII-sensitive [3H]-dopamine release from striatal synaptosomes; type: biochemical
[3] = target: hα7-nAChR (Homo sapiens, UniProt P36544); assay: cell-based; type: cell-based; settings: for EC50: read-out: EC50 α7; for Emax: GH4-C1, read-out: Efficacy α7
[4] = target: α3β4*-nAChR (Mus musculus, UniProt Q8R493+Q8R4G9); assay: [3H]-ACh release from IPN synaptosomes; type: biochemical; settings: for Functional character at α3β4*: [3H]-ACh release from IPN synaptosomes
[5] = system: α4L9'A knock-in mice; assay: Hypothermia in α4L9'A knock-in mice; type: in vivo, mouse; settings: for Physiological effect α4L9'Aβ2*: ip
[6] = system: α6L9'S transgenic mice; assay: Locomotor activity in α6L9'S transgenic mice; type: in vivo, mouse; settings: for Physiological effect α6L9'Sβ2*: locomotor, ip, dose in parentheses mg/kg
[7] = system: α6L9'S transgenic mice; settings: ref Drenan et al, 2008, cited from earlier work; for Physiological effect α6L9'Sβ2*: locomotor, ip, dose in parentheses mg/kg
[8] = target: α7-nAChR (Mus musculus, UniProt P49582); assay: biochemical; type: binding
[9] = system: α6L9'S mice; settings: 0.1 mg/kg; unpublished data
[10] = system: α4L9'A knock-in mice; settings: ref Tapper et al, 2007, cited from earlier work; for Physiological effect α4L9'Aβ2*: ip, dose in parentheses mg/kg
[11] = target: T1, α4β2*-nAChR; settings: ref Salminen et al, 2004; cited from earlier work
[12] = target: T2, α6β2*-nAChR; settings: ref Salminen et al, 2004; cited from earlier work
[13] = read-out: Ki α4β2* (1st number, [3H]DA release assay, marked #)
[14] = EC50 α4β2* (1st number, [3H]DA release assay), activation, curve fit
[15] = EC50 α6β2*, activation, α-CtxMII-sensitive DA release
[16] = dose in parentheses mg/kg, block = block of low dose nicotine
[17] = Ki α4β2* (1st number, [3H]DA release assay, marked #)
[18] = EC50 α3β4*, activation, [3H]ACh release

Chain of α7-nAChR (P49582 23-502): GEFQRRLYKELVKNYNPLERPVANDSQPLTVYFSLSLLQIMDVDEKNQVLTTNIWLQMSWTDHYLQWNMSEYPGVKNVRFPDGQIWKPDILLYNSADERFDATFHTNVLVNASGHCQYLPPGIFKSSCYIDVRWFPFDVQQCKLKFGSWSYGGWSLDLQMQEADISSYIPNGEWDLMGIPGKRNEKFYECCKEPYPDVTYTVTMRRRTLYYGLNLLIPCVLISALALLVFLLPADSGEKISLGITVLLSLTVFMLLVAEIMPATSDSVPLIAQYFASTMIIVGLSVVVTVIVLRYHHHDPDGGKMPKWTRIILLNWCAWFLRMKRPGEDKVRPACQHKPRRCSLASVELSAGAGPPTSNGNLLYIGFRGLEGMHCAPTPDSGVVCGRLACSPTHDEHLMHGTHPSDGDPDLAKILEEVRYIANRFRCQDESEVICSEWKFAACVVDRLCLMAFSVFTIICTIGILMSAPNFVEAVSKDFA
Chain of hα7-nAChR (P36544 23-502): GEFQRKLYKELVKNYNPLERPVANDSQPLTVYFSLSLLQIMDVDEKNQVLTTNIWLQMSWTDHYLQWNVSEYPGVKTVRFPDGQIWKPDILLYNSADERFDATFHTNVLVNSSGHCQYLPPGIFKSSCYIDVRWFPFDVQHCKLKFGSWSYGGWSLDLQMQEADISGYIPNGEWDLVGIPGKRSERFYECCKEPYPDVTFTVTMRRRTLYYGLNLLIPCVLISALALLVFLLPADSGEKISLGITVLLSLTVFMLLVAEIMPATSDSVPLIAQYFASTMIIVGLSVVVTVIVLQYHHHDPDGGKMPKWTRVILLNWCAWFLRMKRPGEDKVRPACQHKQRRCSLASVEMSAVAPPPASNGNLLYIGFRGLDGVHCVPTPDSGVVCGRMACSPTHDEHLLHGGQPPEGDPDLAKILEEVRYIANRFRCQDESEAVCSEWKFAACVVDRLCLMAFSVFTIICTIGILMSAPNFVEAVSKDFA
Chain of α3β4*-nAChR (Q8R4G9 26-499): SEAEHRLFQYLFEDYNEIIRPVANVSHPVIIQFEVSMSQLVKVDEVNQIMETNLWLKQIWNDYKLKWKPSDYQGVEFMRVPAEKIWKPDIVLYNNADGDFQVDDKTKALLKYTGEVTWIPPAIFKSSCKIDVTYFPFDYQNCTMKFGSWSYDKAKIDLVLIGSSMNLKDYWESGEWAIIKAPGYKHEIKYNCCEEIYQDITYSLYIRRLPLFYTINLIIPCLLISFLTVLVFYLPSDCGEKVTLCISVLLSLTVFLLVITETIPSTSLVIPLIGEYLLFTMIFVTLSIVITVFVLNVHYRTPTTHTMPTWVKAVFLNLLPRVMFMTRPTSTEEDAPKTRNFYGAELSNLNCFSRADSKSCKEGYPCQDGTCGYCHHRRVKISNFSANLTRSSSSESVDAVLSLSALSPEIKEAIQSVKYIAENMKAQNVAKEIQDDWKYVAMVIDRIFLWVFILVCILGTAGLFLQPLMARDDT
Chain of α3β4*-nAChR (Q8R493 21-495): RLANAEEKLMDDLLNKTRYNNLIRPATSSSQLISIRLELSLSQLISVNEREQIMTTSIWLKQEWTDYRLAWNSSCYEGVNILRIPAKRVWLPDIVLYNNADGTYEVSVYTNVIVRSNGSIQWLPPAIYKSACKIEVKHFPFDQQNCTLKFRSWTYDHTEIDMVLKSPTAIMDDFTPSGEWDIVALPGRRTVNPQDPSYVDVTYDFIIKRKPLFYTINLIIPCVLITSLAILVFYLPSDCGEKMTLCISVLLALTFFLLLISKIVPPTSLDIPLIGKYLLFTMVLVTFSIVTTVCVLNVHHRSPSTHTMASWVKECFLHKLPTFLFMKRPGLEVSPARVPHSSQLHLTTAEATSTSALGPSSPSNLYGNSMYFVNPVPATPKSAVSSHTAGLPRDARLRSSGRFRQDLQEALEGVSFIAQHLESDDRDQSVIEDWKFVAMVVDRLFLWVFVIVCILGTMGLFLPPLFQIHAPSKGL
T2 sequence (Q9R0W9 31-494): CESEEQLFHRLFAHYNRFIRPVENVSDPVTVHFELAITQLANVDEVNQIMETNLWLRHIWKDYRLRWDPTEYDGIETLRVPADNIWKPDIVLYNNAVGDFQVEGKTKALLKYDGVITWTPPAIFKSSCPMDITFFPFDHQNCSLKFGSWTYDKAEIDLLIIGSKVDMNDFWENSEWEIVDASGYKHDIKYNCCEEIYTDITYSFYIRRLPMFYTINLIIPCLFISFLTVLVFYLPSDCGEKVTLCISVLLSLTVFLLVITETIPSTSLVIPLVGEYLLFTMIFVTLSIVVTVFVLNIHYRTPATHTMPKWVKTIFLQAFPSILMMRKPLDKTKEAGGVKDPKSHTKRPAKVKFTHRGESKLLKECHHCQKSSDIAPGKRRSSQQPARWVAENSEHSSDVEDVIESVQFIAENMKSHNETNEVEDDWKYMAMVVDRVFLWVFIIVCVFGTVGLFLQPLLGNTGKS
T2 sequence (Q9ERK7 26-501): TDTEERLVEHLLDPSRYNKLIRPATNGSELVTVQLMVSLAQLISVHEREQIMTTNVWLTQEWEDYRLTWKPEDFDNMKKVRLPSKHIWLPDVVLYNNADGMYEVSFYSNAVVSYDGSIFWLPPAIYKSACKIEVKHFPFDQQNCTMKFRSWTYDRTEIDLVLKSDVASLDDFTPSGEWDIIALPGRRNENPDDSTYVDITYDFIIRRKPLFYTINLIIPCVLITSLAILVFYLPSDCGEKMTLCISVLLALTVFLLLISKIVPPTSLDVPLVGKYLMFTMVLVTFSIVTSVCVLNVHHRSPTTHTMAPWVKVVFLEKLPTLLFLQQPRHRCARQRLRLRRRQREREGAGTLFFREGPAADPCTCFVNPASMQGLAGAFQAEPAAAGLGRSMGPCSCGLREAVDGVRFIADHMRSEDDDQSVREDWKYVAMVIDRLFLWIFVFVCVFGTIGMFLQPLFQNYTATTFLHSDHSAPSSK
T2 sequence (Q8BMN3 31-464 partner): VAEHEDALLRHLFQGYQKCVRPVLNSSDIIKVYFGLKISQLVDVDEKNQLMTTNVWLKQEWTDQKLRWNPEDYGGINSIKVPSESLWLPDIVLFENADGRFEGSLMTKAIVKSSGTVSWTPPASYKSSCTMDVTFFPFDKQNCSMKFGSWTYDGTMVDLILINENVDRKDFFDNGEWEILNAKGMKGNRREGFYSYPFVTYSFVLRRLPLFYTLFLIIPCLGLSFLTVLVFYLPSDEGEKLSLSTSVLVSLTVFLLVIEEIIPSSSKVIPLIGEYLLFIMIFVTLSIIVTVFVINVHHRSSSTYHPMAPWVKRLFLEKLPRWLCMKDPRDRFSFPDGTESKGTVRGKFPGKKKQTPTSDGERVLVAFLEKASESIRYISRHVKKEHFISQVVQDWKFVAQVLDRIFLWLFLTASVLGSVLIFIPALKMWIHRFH
T1 sequence (O70174 31-629): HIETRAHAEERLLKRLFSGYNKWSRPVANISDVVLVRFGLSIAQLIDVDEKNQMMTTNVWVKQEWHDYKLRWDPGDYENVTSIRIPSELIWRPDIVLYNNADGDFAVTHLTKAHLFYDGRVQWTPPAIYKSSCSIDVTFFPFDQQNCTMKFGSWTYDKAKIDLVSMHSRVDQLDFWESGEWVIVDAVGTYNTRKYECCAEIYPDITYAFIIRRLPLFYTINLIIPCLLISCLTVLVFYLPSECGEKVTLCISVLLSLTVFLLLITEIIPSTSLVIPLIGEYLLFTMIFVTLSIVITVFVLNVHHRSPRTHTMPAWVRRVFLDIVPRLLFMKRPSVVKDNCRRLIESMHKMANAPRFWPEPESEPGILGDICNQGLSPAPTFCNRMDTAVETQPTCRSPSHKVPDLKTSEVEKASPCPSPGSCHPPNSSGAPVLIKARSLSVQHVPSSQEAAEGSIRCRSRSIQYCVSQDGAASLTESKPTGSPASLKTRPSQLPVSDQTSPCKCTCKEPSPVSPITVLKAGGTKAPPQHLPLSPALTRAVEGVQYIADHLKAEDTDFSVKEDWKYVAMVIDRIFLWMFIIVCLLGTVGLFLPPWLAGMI
T1 sequence (Q9ERK7 26-501): as the sequence (Q9ERK7 26-501) above

Compound: 2-((5-chloropyridin-3-yloxy)methyl)quinuclidine [Compound 11]
- Efficacy α4β2* (first number, [3H]DA release) [1]: -100 ± 9%
- Reduction of antagonist potency at α4β2* relative to Compound 5 [1]: 16 fold
- Ki [1, 13]: 490 nM
- Efficacy α6β2* [2]: -100 ± 18%
- Reduction of antagonist potency at α6β2* relative to Compound 5 [2]: 2 fold
- Ki ([2]; read-out: Ki α6β2* (marked #)): 910 ± 656 nM
- Efficacy α7 [3]: 31% and 31 ± 12%
- EC50 ([3]; peak current, GH4C1 cells): 4260 ± 730 nM
- Efficacy α3β4* [4]: 8% and 8 ± 2%
- Functional character at α3β4* [4]: partial agonists
- EC50 ([4]; read-out: EC50 α3β4*, activation, [3H]ACh release): 7000 ± 1000 nM
- Physiological effect α4L9'Aβ2* ([5]; mouse, in vivo): did not have intrinsic activity, nor did they block the effect of nicotine; also recorded: inconclusive

Compound: c1cncc(C2CC3CCN2CC3)c1 (racemic) [Compound 1, (±)-2-(-3-pyridinyl)-1-azabicyclo[2.2.2]octane]
- Temperature drop in α4L9'A mice ([5]; 0.03 mg/kg i.p.): ~8 °
- Physiological effect α4L9'Aβ2* ([5]; mouse, in vivo): hypothermia (0.03)
- Increase in activity over saline in α6L9'S mice ([6]; 0.01 mg/kg i.p.): ~290%
- Physiological effect α6L9'Sβ2* [7]: locomotor activation; also recorded: activation (0.01) ^2

Compound: c1cncc(C2C3CCN2CC3)c1 (centres unmarked) [Compound 2, 7-(pyridin-3-yl)-1-azabicyclo[2.2.1]heptane]
- Ki [8]: 32.9 ± 1.3 nM
- EC50 [1, 14]: 1040 ± 280 nM
- EC50 [2, 15]: 50 ± 23 nM
- Functional character at α6β2* ([2]; α-CtxMII-sensitive DA release): full agonist
- Functional character at α7 [3]: full agonist
- Emax [3]: 108%
- EC50 [4]: 4200 ± 500 nM
- Functional character at α3β4* [4]: full or nearly full agonists
- Physiological effect α4L9'Aβ2* [5, 16]: elicited responses; also recorded: hypothermia (0.03)
- Physiological effect α6L9'Sβ2* [6]: elicited responses; also recorded: locomotor activation; also recorded: activation (0.1)

Compound: c1cncc(C2CCC3CCN2CC3)c1 (centres unmarked) [Compound 3, 2-(pyridine-3-yl)-1-azabicyclo[3.2.2]nonane]
- Ki [8]: 2.2 ± 0.5 nM
- Ki [1, 17]: 14 nM
- Ki [2]: 52 ± 22 nM
- Functional character at α7 [3]: full agonists
- Emax [3]: 106%
- EC50 [4, 18]: 2200 ± 300 nM
- Functional character at α3β4* [4]: full or nearly full agonists
- Physiological effect α4L9'Aβ2* ([5]; mouse, in vivo): blocked the effects of 0.1 mg/kg nicotine; also recorded: block (0.002)

Compound: c1cncc(C2C3CC4CC(C3)CN2C4)c1 (centres unmarked) [Compound 4, 1-aza-2-(3-pyridinyl)-tricyclo[3.3.1.13,7]decane]
- Ki [8]: 64.5 ± 5.5 nM
- Ki [1, 17]: 78 nM
- Ki [2]: 570 ± 299 nM
- EC50 ([4]; EC50 α3β4* [3H]-ACh release): 8500 nM
- EC50 [4, 18]: 34000 ± 8000 nM
- Functional character at α3β4* [4]: full or nearly full agonists
- Physiological effect α4L9'Aβ2* ([5]; mouse, in vivo): blocked the effects of 0.1 mg/kg nicotine; also recorded: block (0.01)

Compound: c1cncc(CC2CC3CCN2CC3)c1 (centres unmarked) [Compound 5, 2-(pyridin-3-ylmethyl)quinuclidine]
- Functional character at α3β4* [4]: full or nearly full agonists
- Physiological effect α4L9'Aβ2* ([5]; mouse, in vivo): did not have intrinsic activity, nor did they block the effect of nicotine; also recorded: no effect

Compound: c1ccc(-c2cncc(C3CC4CCN3CC4)c2)cc1 [Compound 6, (4S)-2-(5-phenylpyridin-3-yl)quinuclidine]
- Decrease in α7 binding affinity relative to Compound 1 [8]: approximately 50 fold
- Efficacy α4β2* (first number, [3H]DA release) [1]: -94 ± 2%
- Ki [1, 13]: 230 nM
- Efficacy α6β2* [2]: -100 ± 19%
- Ki ([2]; read-out: Ki α6β2* (marked #)): 1780 ± 1740 nM
- Efficacy α7 [3]: 18 ± 6%
- EC50 ([3]; peak current, GH4C1 cells): 29000 ± 5400 nM
- Efficacy α3β4* [4]: -100 ± 7%
- Functional character at α3β4* [4]: full antagonists
- Ki ([4]; read-out: Ki α3β4* (marked #)): 660 ± 170 nM

Compound: N#Cc1ccc(Oc2cncc(C3CC4CCN3CC4)c2)cc1 (centres unmarked) [Compound 7, 4-(5-(quinuclidin-2-yl)pyridin-3-yloxy)benzonitrile]
- Ki [8]: 23.4 ± 7.9 nM
- Ki [1, 17]: 66 nM
- Antagonist potency at α6β2* relative to Compound 6 (times more potent) [2]: 40 times
- Ki [2]: 48 ± 3 nM
- Ki [4]: 7000 ± 2000 nM
- Functional character at α3β4* [4]: full or nearly full agonists
- Physiological effect α4L9'Aβ2* ([5]; mouse, in vivo): blocked the effects of 0.1 mg/kg nicotine; also recorded: block (0.01)
- Physiological effect α6L9'Sβ2* [6]: block (0.1)

Compound: CNCC/C=C/c1cccnc1 [Compound 8, (E)-N-methyl-4-(3-pyridinyl)-3-butene-1-amine]
- Ki [8]: 3070 ± 800 nM
- EC50 [1]: 14800 ± 10100 nM
- Functional character at α6β2* ([2]; α-CtxMII-sensitive DA release): no measurable activity
- Emax [3]: 17 ± 7%
- Functional character at α3β4* [4]: partial agonists
- Physiological effect α4L9'Aβ2* ([5]; mouse, in vivo): elicited responses; also recorded: hypothermia (0.2)
- Physiological effect α6L9'Sβ2* [7]: elicited responses; also recorded: elicit a response; also recorded: activation (1.0) ^2

Compound: CNC(C)C/C=C/c1cncc(C#Cc2ccccc2)c1 (centres unmarked) [Compound 9, (E)-N-methyl-5-(5-(phenylethynyl)pyridin-3-yl)pent-4-en-2-amine]
- Ki [8]: 30700 ± 4100 nM
- Ki [1, 17]: 3900 nM
- Inhibition at α6β2* (partial antagonism) [2]: ~50%
- Ki [2]: 4100 ± 83 nM
- Efficacy α7 [3]: naa
- EC50 α7 ([3]; peak current, GH4C1 cells): naa
- Ki [4]: 14000 ± 300 nM
- Functional character at α3β4* [4]: full antagonists
- Physiological effect α4L9'Aβ2* ([5]; mouse, in vivo): did not have intrinsic activity, nor did they block the effect of nicotine; also recorded: no effect

Compound: CN1[C@@H]2CC[C@H]1C=C(c1cncc(Br)c1)C2 [Compound 10, (1R,5S)-3-(5-bromopyridin-3-yl)-8-methyl-8-azabicyclo[3.2.1]oct-3-ene]
- Ki [8]: 128 ± 36 nM
- Efficacy as % of Compound 8, α-CtxMII-resistant DA release [1]: 25%
- Increase in potency relative to Compound 8, α-CtxMII-resistant DA release [1]: 83 fold
- EC50 [1, 14]: 178 ± 94 nM
- EC50 ([1]; EC50 α-CtxMII-resistant (α4β2*) [3H]-DA release): 180 nM
- EC50 [2, 15]: 117 ± 69 nM
- EC50 ([2]; EC50 α-CtxMII-sensitive (α6β2*) [3H]-DA release): 120 nM
- Functional character at α6β2* ([2]; α-CtxMII-sensitive DA release): partial agonist
- Emax [3]: 55 ± 9%
- EC50 [4, 18]: 7200 ± 600 nM
- Functional character at α3β4* [4]: partial agonists
- Physiological effect α4L9'Aβ2* ([5]; mouse, in vivo): elicited responses; also recorded: hypothermia (0.1)
- Physiological effect α6L9'Sβ2* [6]: elicited responses; also recorded: locomotor activation; also recorded: activation (0.1)

Compound: CN1CCC[C@H]1c1cccnc1 [Nicotine, (-)-nicotine tartrate]
- Temperature decrease in α6L9'S mice [9]: < 1 °C
- Locomotor activation, % of saline activity in α6L9'S mice ([7]; 0.15 mg/kg ip): ~350%
- Physiological effect α6L9'Sβ2* [7]: activation (0.1) ^2
- Physiological effect α6L9'Sβ2* ([7]; listed as nicotine): locomotor hyperactivity
- Temperature decrease in α4L9'A mice ([10]; 0.03 mg/kg): 3 °C
- Physiological effect α4L9'Aβ2* [10]: hypothermia (0.01) ^1
- Physiological effect α4L9'Aβ2* ([10]; listed as nicotine): hypothermia

Compound: c1cnc2cc3c(cc2n1)[C@@H]1CNC[C@H]3C1 [Varenicline, reference compound]
- Ki [8]: 42 ± 5 nM
- EC50 [1]: 50 ± 12 nM
- EC50 [2]: 77 ± 169 nM
- Emax [3]: 78 ± 24%
- EC50 [4]: 12000 ± 300 nM
- Physiological effect α4L9'Aβ2* [5, 16]: hypothermia (0.001)
- Physiological effect α6L9'Sβ2* [6]: activation (0.1)
- Physiological effect α6L9'Sβ2* ([6]; listed as varenicline): locomotor hyperactivity

Compound: O=c1cccc2n1C[C@@H]1CNC[C@H]2C1 [cytisine]
- Efficacy at α4β2*-nAChRs [11]: 37%
- Efficacy at α6β2* [12]: 71%
